Laboratory results as given in ChEMBL document CHEMBL4257005, “Therapeutically active compounds and their methods of use” (2016).

Assays:
[1] = molecular target: Isocitrate dehydrogenase [NADP] cytoplasmic (Homo sapiens, UniProt O75874); experiment: Inhibition of His-tagged wild type IDH1 (unknown origin)/FLAG-tagged IDH1 R132H mutant heterodimer expressed in Sf9 cells pre-incubated for 1 hr before addition of alpha-KG followed by diaphorase and resazurin addition and measured after 5 mins in presence of NADPH and 30 uM NADP ny fluorescence spectrometry
[2] = molecular target: Isocitrate dehydrogenase [NADP] cytoplasmic (Homo sapiens, UniProt O75874, R132C); experiment: Inhibition of DH1 R132C mutant homodimer (unknown origin) expressed in Sf9 cells pre-incubated for 1 hr before addition of alpha-KG followed by 90 mins incubation in presence of NADPH, NADP, diaphorase and resazurin by fluorescence spectrometry
[3] = molecular target: Isocitrate dehydrogenase [NADP] cytoplasmic (Homo sapiens, UniProt O75874, R132H); experiment: Inhibition of DH1 R132H mutant homodimer (unknown origin) expressed in Sf9 cells pre-incubated for 1 hr before addition of alpha-KG followed by 90 mins incubation in presence of NADPH, NADP, diaphorase and resazurin by fluorescence spectrometry
Chain of Isocitrate dehydrogenase [NADP] cytoplasmic (Homo sapiens, UniProt O75874, R132H) (O75874 2-414 R132H limits assumed): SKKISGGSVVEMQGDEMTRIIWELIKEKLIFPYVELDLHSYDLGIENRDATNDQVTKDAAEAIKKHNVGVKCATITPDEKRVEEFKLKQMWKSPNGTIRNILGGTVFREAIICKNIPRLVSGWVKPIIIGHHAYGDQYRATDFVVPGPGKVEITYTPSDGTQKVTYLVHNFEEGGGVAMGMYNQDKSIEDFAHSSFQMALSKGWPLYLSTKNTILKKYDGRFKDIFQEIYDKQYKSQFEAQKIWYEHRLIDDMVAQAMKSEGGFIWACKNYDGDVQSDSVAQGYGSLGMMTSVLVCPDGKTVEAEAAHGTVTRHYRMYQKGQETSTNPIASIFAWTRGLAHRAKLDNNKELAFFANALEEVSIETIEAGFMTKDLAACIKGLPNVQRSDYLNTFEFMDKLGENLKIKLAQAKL

Chain of Isocitrate dehydrogenase [NADP] cytoplasmic (Homo sapiens, UniProt O75874, R132C) (O75874 2-414 R132C limits assumed): as the sequence (O75874 2-414 R132H limits assumed) above, with H131C counted along it
Chain of Isocitrate dehydrogenase [NADP] cytoplasmic (Homo sapiens, UniProt O75874) (O75874 2-414 limits assumed): as the sequence (O75874 2-414 R132H limits assumed) above, with H131R counted along it

IC50 [2]	Structure (SMILES)	also measured
	C[C@@H](Nc1nc(N[C@H](C)C2CC2)nc(-c2ccc(Cl)cc2)n1)C1CC1	IC50 [1]: Not Active
Not Active	C[C@@H](Nc1nc(NCC(N)=O)nc(-c2cccc(C(F)(F)F)n2)n1)C1CC1	
	COc1ccc(F)c(-c2nc(N[C@H](C)C3CC3)nc(N[C@H](C)C3CC3)n2)c1	IC50 [3]: Not Active
Not Active	C[C@@H](Nc1nc(N[C@H](C)C2CC2)nc(-c2cccc(C(F)(F)F)n2)n1)C(=O)O	
Not Active	C[C@@H](Nc1nc(N[C@H](C)C2CC2)nc(-c2cccc(C(F)(F)F)n2)n1)C(=O)N(C)C	
